This is an account of results in US8609610B2, “Inhibitors of the trypsin-like site of the proteasome and methods of use thereof” (Trustees of Dartmouth College, priority 2011, dated 2013).

Common to all, as to assay type: cell-based
The target in one test is T1, cathepsin D (Homo sapiens, UniProt P07339).
T1 construct: endogenous in cells
The experiment in a line: Cathepsin D activity assay (SENSOLYTE 520). As to conditions: concentrations as high as 27 μM. Here is the method:
Cathepsin B, H, L, S activity was measured with pan-cathepsin substrate Z-FR-amc (Kirschke & Wiederanders (1994) Methods Enzymol. 244:500-11) in extracts of cytosol-less cells at pH 6.0 (Screen, et al. (2010) supra). Cathepsin D activity was measured in cytosol-less extracts using SENSOLYTE 520 Cathepsin D Fluorometric Assay Kit (AnaSpec). Combined cathepsin D and E activity was measured using the same kit, in which cathepsin D substrate provided with the kit was replaced with 7-Methoxycoumarin-[…](Dnp)-X′-NH2 (SEQ ID NO:10; where “X′” stand for D-Arg) internally quenched fluorogenic substrate of cathepsin D and E. In this case, pH 3.0 assay buffer used for cell extraction. All activity observed using both procedures was inhibited by more than 98% by specific inhibitor of aspartic proteases pepstatin A.

A further test concerns NCI-H929 cells. As to the kind of experiment: ALAMAR BLUE cell viability assay. The essentials: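 Myeloma lines were grown in RPMI-1640 with 10% FBS; viability of myeloma cells was read by ALAMAR BLUE mitochondrial dye conversion. PBMNC viability used CELL TITER-GLO ATP luminescence. Caspase-3/7 activity in NCI-H929 and MM1.R was measured with the APO-ONE homogeneous assay.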
For orientation: Alamar Blue is a resazurin reagent that responds to reducing activity.

The subject of test [1] is trypsin-like sites (β2) of proteasome in MM cells. The experiment in a line: PROTEASOMEGLO assay of proteasome inhibition in MM cells.
In test [2] the target is T2, trypsin-like sites (β2) of proteasome in MM cells (Homo sapiens, UniProt Q99436).
T2 construct: endogenous in cells; host or cells: NCI-H929, RPMI-8226 and other MM cell lines
T2 sequence (Q99436 44-277): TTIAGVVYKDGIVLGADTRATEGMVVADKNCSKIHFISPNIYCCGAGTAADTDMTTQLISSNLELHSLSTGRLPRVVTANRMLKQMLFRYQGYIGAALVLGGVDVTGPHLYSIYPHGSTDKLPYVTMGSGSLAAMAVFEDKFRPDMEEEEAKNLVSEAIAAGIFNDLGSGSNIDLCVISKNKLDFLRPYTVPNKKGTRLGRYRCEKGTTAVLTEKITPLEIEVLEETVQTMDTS
Described as above. As to conditions: for pIC50: 6 hours, >>30 no inhibition at 30 μM, >30 inhibition 10-50% at 30 μM, read-out: IC50 for sites: Tr-L.

The test system of test [3] is T3, chymotrypsin-like sites (β5) of proteasome in MM cells.
T3 construct: other: NCI-H929; bortezomib 100 nM 1 h; bortezomib 11 nM 1 h; bortezomib 3.7 nM 1 h; bortezomib 33 nM 1 h; other: NCI-H9
The test is described as above. As to conditions: 6 hours, >>30 no inhibition at 30 μM, >30 inhibition 10-50% at 30 μM, read-out: IC50 for sites: Chym-L.

pIC50: −log10 of the molar value. Like-named read-outs stand apart in the source and are kept apart here.

T1 sequence (P07339 65-412): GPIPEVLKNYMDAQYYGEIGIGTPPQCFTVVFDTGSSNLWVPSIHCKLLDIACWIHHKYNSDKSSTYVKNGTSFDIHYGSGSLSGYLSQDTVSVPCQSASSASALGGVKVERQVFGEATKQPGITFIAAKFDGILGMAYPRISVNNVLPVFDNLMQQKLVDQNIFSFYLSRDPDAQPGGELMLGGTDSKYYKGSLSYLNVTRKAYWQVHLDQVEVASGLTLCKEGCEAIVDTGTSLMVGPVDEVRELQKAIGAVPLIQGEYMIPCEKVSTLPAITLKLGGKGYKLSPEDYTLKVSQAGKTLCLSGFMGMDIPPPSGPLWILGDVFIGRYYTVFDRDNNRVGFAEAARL

What is called inhibition is the drop in the measured response relative to a control, in per cent. Low readings indicate little suppression, high ones strong suppression. By pIC50 is commonly meant the negative decadic logarithm of the IC50, by convention in mol/L. On to `Cc1c(O)cccc1C(=O)N[C@H](C(=O)N[C@@H](CO)C(=O)N[C@@H](CCCNC(=N)N)C(=O)[C@@]1(C)CO1)C(C)C` [NC-022, HMB-Val-Ser-Arg-ek], for which the “inhibition of cathepsin D” value on cathepsin D is given as “did not inhibit”. Besides, the “sensitization: change of IC50 of LU-005” value with NCI-H929 cells (LU-005 1 hour, then NC-022 48 hours, maximal at 3 μM NC-022) was “up to 8.5 fold”. Also, the cell viability result with NCI-H929 cells (NCI-H929, 48 hours, even at concentrations that completely inhibited the trypsin-like sites) is “No loss of viability”. Besides, the “difference in IC50 for trypsin-like activity between NCI-H929 and RPMI-8226” value in test [1] came out at 25 fold. The “time to steady-state proteasome inhibition” value in test [1] (RPMI-8226 cells) is greater than 6 h. Besides, 3 µM produced 90% inhibition in test [2] (3 μM NC-022, within 4-6 hours after addition). The “inhibition of trypsin-like activity by NC-022 treatment” value in test [2] (NCI-H929 and KMS-12-BM, 5 hours after NC-022 addition) was “that trypsin-like activity was inhibited by >90% but inhibition of the chymotrypsin-like activity was not altered by NC-022 treatment”. Further, the “inhibition of trypsin-like activity in live cells” value in test [2] (NCI-H929 cells treated overnight) was “sub-micromolar concentrations”. The pIC50 in test [2] (NCI-H929 cells) was 6.05; in test [2] (RPMI-8226 cells) it was 4.62; in test [3] (NCI-H929 cells) it was less than 4.52; in test [3] (RPMI-8226 cells), less than 4.52.
